In ChEMBL document CHEMBL5126651, “ALK Inhibitors for Treating Cancer, Blood, and Kidney Diseases” (ACS Med Chem Lett, 2022):

Legend:
TGF-beta receptor type-1 = molecular target: T1, TGF-beta receptor type-1 (Homo sapiens, UniProt P36897); test: Displacement of Alexa Fluor labeled tracer 178 from ALK5 (unknown origin) using anti-GST antibody incubated for 60 mins by TR-FRET based LanthaScreen Eu-Kinase binding assay
T1 sequence (P36897 whole entry): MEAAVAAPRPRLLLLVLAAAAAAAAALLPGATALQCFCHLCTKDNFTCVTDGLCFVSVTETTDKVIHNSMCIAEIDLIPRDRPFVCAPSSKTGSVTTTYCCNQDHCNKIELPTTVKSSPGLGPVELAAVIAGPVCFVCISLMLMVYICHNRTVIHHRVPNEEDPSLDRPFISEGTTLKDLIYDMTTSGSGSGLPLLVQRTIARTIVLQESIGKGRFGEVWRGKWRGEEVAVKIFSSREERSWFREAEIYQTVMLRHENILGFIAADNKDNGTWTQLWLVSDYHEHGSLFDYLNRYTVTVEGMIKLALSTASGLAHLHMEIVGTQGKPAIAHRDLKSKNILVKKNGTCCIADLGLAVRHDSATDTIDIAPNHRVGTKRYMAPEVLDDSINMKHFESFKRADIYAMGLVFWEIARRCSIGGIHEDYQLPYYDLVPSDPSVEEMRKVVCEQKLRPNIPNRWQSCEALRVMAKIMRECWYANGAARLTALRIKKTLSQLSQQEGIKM

Homo sapiens = species on record: Homo sapiens; test: Selectivity ratio of IC50 for ALK2 (unknown origin) to IC50 for ALK5 (unknown origin)
[1] = molecular target: T2, TGF-beta receptor type-1 (Homo sapiens) (UniProt P36897); test: Inhibition of TGF-beta receptor 1 in human RD cells transfected with Smad reporter plasmid by reporter gene based One-Glo luciferase assay; type: cell-based
T2 sequence (whole entry): T1 sequence (P36897 whole entry)

Cc1cccc2c(Nc3ccnc(Nc4ccc(N5CCOCC5)cc4)n3)cnnc12
IC50 (TGF-beta receptor type-1): ≤ 10 nM
Ratio IC50 (Homo sapiens): 10
INH [1]: < 100 nM

Cc1cccc2c(Nc3ccnc(Nc4cccc(CN5CCN(C)CC5)c4)n3)cnnc12
IC50 (TGF-beta receptor type-1): ≤ 10 nM
Ratio IC50 (Homo sapiens): > 10
INH [1]: < 100 nM

Cc1cccc2c(Nc3ccnc(Nc4cc(CN5CCNCC5)ccc4F)n3)cnnc12
IC50 (TGF-beta receptor type-1): ≤ 10 nM
Ratio IC50 (Homo sapiens): 10
INH [1]: < 1000 nM

Cc1cccc2c(Nc3nc(Nc4cc(CN5CCNCC5)ccc4F)ncc3F)cnnc12
IC50 (TGF-beta receptor type-1): 10 nM
Ratio IC50 (Homo sapiens): > 10
INH [1]: < 1000 nM

Cc1cccc2c(Nc3ccnc(Nc4cc(F)cc(CN5CCNCC5)c4)n3)cnnc12
IC50 (TGF-beta receptor type-1): ≤ 10 nM
Ratio IC50 (Homo sapiens): > 10
INH [1]: < 100 nM

Cc1cccc2c(Nc3ccnc(Nc4ccc(N5CCOCC5)c(Cl)c4)n3)cnnc12
IC50 (TGF-beta receptor type-1): ≤ 10 nM
Ratio IC50 (Homo sapiens): 10
INH [1]: < 100 nM

Cc1cc(F)cc2c(Nc3ccnc(Nc4ccc(N5CCN(C)CC5)cc4)n3)cnnc12
IC50 (TGF-beta receptor type-1): ≤ 10 nM
Ratio IC50 (Homo sapiens): 10
INH [1]: < 100 nM

Cc1c(F)ccc2c(Nc3ccnc(Nc4ccc(N5CCN(C)CC5)cc4)n3)cnnc12
IC50 (TGF-beta receptor type-1): ≤ 10 nM
Ratio IC50 (Homo sapiens): 10
INH [1]: < 100 nM

Cc1c(F)ccc2c(Nc3ccnc(Nc4ccc(N5CCNCC5)cc4)n3)cnnc12
IC50 (TGF-beta receptor type-1): ≤ 10 nM
Ratio IC50 (Homo sapiens): 10
INH [1]: < 100 nM

Cc1cccc2c(Nc3ccnc(Nc4cccc(N5CCOCC5)c4)n3)cnnc12
IC50 (TGF-beta receptor type-1): ≤ 10 nM
Ratio IC50 (Homo sapiens): 10
INH [1]: < 100 nM

Cc1cccc2c(Nc3ccnc(Nc4ccc(N5CCNCC5)c(F)c4)n3)cnnc12
IC50 (TGF-beta receptor type-1): ≤ 10 nM
Ratio IC50 (Homo sapiens): 10
INH [1]: < 100 nM

Cc1cccc2c(Nc3ccnc(Nc4ccc(CC5CCNCC5)cc4)n3)cnnc12
IC50 (TGF-beta receptor type-1): < 1000 nM
Ratio IC50 (Homo sapiens): 10
INH [1]: < 1000 nM
